Test results from ChEMBL document CHEMBL1201862, “PubChem BioAssay data set” (2004).
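1) Cells in 96-well plates. 2) Compound, 48 h, 5 concentrations. 3) Linear interpolation between surrounding doses. 4) Unreached endpoint = highest concentration. Abbreviation: GI50, concentration required for 50% inhibition of growth.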 Active and inactive are the calls of the source. No stated cut-off is given here; in the data, active = GI50 up to about 1.1 µM and inactive = higher.

How the values were obtained:
Assay in all cases: growth of human tumour cells (NCI), 48 h
[1] = test system: NCI-H522
[2] = test system: SNB-75
[3] = test system: RPMI-8226
[4] = test system: SF-295
[5] = test system: UACC-62
[6] = test system: SR
[7] = test system: MOLT-4
[8] = test system: EKVX
[9] = test system: RXF 393
[10] = test system: HL-60
[11] = test system: NCI-H23
[12] = test system: SK-MEL-28
[13] = test system: SK-MEL-2
[14] = test system: Malme-3M
[15] = test system: OVCAR-8
[16] = test system: NCI-H226
[17] = test system: SNB-19

Measured: GI50

CC(C)CCCC(C)C1CCC2C3CC([N+](=O)[O-])=C4CC(O)CCC4(C)C3CCC12C (configuration not stated)
inactive: [1] 17.5 µM | [2] 17.1 µM | [3] 5.02 µM | [4] 14.2 µM | [5] 19.9 µM | [6] 15 µM | [7] 24.2 µM | [8] 27 µM | [9] 23.6 µM | [10] 25 µM | [11] 22.7 µM | [12] 13.7 µM | [13] 12.4 µM | [14] 19.8 µM | [15] 21.7 µM

O=C(O/N=C1/CCC/C1=C\c1ccccc1)c1ccc(Cl)c(Cl)c1
inactive: [1] > 100 µM | [2] > 100 µM | [3] > 100 µM | [4] > 100 µM | [5] > 100 µM | [16] > 100 µM | [6] > 100 µM | [7] > 100 µM | [8] > 100 µM | [9] > 100 µM | [10] > 100 µM | [11] > 100 µM | [12] > 100 µM | [13] > 100 µM | [14] > 100 µM | [15] > 100 µM

COc1ccccc1NC(=O)C1=C(C)NC(C)=C(C(=O)Nc2ccccc2OC)C1c1ccccc1[N+](=O)[O-]
inactive: [1] 13.1 µM | [2] 42.1 µM | [3] 19.1 µM | [4] 32.4 µM | [5] 21.3 µM | [16] 15.2 µM | [6] 11.5 µM | [7] 14.3 µM | [8] 64.1 µM | [9] > 100 µM | [10] 20.2 µM | [11] 16.8 µM | [12] 17.5 µM | [13] 11.4 µM | [14] 13.9 µM | [15] 19.2 µM

O=c1oc2ccccc2c(O)c1C(C/C(CCN1CCCC1)=N\Nc1ccccc1)c1ccccc1 (configuration not stated)
inactive: [1] 51.2 µM | [2] > 100 µM | [3] 27.1 µM | [4] 55.7 µM | [5] 76 µM | [16] 71.9 µM | [6] 31.2 µM | [8] > 100 µM | [17] 69.5 µM | [9] 32.7 µM | [10] 24.2 µM | [11] 57.3 µM | [13] 51.3 µM | [14] 78.5 µM | [15] > 100 µM

COc1ccc2c3c([nH]c2c1[N+](=O)[O-])C(C)N(C(=O)/C=C/c1ccccc1)CC3 (configuration not stated)
inactive: [1] 2.9 µM | [3] 2.78 µM | [4] 2.42 µM | [5] 2.07 µM | [16] 10.9 µM | [6] 3.92 µM | [7] 2.64 µM | [8] 16.6 µM | [17] 36.9 µM | [9] 3.27 µM | [10] 2.64 µM | [11] 25.5 µM | [12] 5.14 µM | [13] 10.7 µM | [15] 3.91 µM
